Paper PMC10066365, “Nemacol is a small molecule inhibitor of C. elegans vesicular acetylcholine transporter with anthelmintic potential” (Nature Communications, 2023)
“And” between values parts separate entries of the source, which are not always exact repeats. Identical values can stand only once.

How the values were obtained:
[1] = test system: Dirofilaria immitis L3/L4; experiment: Dirofilaria immitis L3/L4 motility assay (DiroImager, 72 h); settings: Dirofilaria immitis L4
Pristionchus pacificus = Pristionchus pacificus motor disruption dose-response on solid media, 1 h; settings: for mean % any phene: any phenotype (coiled, jerky-Unc or paralyzed) at one hour, mean of three biological replicates; for rep 1 no phene / rep 1 paralyzed / rep 2 atypical locomotion / rep 2 coiled / rep 2 no phene / rep 2 paralyzed / rep 3 atypical locomotion / rep 3 no phene / rep 3 paralyzed / rep 1 atypical locomotion / rep 1 coiled / rep 3 coiled: count of 20 animals per trial, one hour
C. elegans = C. elegans motor phenotype scoring on solid media (Punc/jerky-unc, coiled, paralyzed), wild-type young adults; type: in vivo, Caenorhabditis elegans; settings: for atypical locomotion (number of animals) / coiled (number of animals) / no phene (number of animals) / paralyzed (number of animals) / any phene: mean % fraction of young adults exhibiting any phenotype (coiled, jerky-Unc or paralyzed): one hour; for atypical locomotion (number of animals) / coiled (number of animals) / no phene (number of animals) / paralyzed (number of animals): young adults, 20 animals per trial, single technical replicate; for any phene: mean % fraction of young adults exhibiting any phenotype (coiled, jerky-Unc or paralyzed): mean of three biological replicates; for EC50: Caenorhabditis elegans, any motor phenotype after 1 h on solid media, ± 95% CI, read-out: C. elegans - motor disruption EC50
[2] = test system: Dirofilaria immitis microfilariae; experiment: Dirofilaria immitis microfilariae immobility assay (DiroImager, 72 h); settings: Dirofilaria immitis microfilariae
Procedure, shortened: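 About 250 freshly purified microfilariae of the Missouri isolate per well in supplemented RPMI 1640, exposed to compound for 72 h. Motility scored by automated whole-plate optical imaging; medium with 1% DMSO as negative control.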

Fc1ccccc1N1CCN(C2CCCCCC2)CC1 [Nemacol-56]
% effect (motility), DIROIM L4 ([1]; 10 µM): 0% | % effect (motility), DIROIM L4 ([1]; 50 µM): 15% | EC50 (Pristionchus pacificus; Pristionchus pacificus, 1 h, read-out: P. pacificus motor disruption EC50): 38.4 ± 4.7 µM | mean % any phene (Pristionchus pacificus; conc 3.75): 2.5% | rep 1 no phene (Pristionchus pacificus; conc 3.75): 20 and 18 | rep 1 paralyzed (Pristionchus pacificus; conc 3.75): 0 | rep 2 atypical locomotion (Pristionchus pacificus; conc 3.75): 0 | rep 2 coiled (Pristionchus pacificus; conc 3.75): 0 | rep 2 no phene (Pristionchus pacificus; conc 3.75): 20 | rep 2 paralyzed (Pristionchus pacificus; conc 3.75): 0 | rep 3 atypical locomotion (Pristionchus pacificus; conc 3.75): 0 | rep 3 no phene (Pristionchus pacificus; conc 3.75): 20 and 19 | rep 3 paralyzed (Pristionchus pacificus; conc 3.75): 0 | mean % any phene (Pristionchus pacificus; conc 15): 0.8333% | rep 1 atypical locomotion (Pristionchus pacificus; conc 15): 0 | rep 1 coiled (Pristionchus pacificus; conc 15): 0 | rep 1 no phene (Pristionchus pacificus; conc 15): 20 | rep 1 paralyzed (Pristionchus pacificus; conc 15): 0 | rep 2 coiled (Pristionchus pacificus; conc 15): 0 | rep 2 no phene (Pristionchus pacificus; conc 15): 19 and 20 | rep 2 paralyzed (Pristionchus pacificus; conc 15): 0 | rep 3 atypical locomotion (Pristionchus pacificus; conc 15): 0 | rep 3 coiled (Pristionchus pacificus; conc 15): 0 | rep 3 no phene (Pristionchus pacificus; conc 15): 20 | rep 3 paralyzed (Pristionchus pacificus; conc 15): 0 | mean % any phene (Pristionchus pacificus; conc 60): 85% | rep 1 atypical locomotion (Pristionchus pacificus; conc 60): 10 | rep 1 coiled (Pristionchus pacificus; conc 60): 4 and 2 | rep 1 no phene (Pristionchus pacificus; conc 60): 2 | rep 1 paralyzed (Pristionchus pacificus; conc 60): 4 and 6 | rep 2 no phene (Pristionchus pacificus; conc 60): 5 and 3 | rep 3 atypical locomotion (Pristionchus pacificus; conc 60): 14 and 13 | rep 3 coiled (Pristionchus pacificus; conc 60): 3 and 4 | rep 3 no phene (Pristionchus pacificus; conc 60): 3 | rep 3 paralyzed (Pristionchus pacificus; conc 60): 0 | atypical locomotion (number of animals) (C. elegans; 3.75uM): 2 and 3 and 12 and 10 | coiled (number of animals) (C. elegans; 3.75uM): 0 | no phene (number of animals) (C. elegans; 3.75uM): 18 and 17 and 8 and 10 | paralyzed (number of animals) (C. elegans; 3.75uM): 0 | any phene: mean % fraction of young adults exhibiting any phenotype (coiled, jerky-Unc or paralyzed) (C. elegans; 3.75uM): 25.8333% | atypical locomotion (number of animals) (C. elegans; 15uM): 12 and 18 and 7 and 14 and 16 | coiled (number of animals) (C. elegans; 15uM): 0 and 2 | no phene (number of animals) (C. elegans; 15uM): 8 and 2 and 13 and 4 | paralyzed (number of animals) (C. elegans; 15uM): 0 and 2 | any phene: mean % fraction of young adults exhibiting any phenotype (coiled, jerky-Unc or paralyzed) (C. elegans; 15uM): 69.1667% | atypical locomotion (number of animals) (C. elegans; 60uM): 2 and 3 and 10 and 0 | coiled (number of animals) (C. elegans; 60uM): 5 and 6 and 4 and 3 and 8 | no phene (number of animals) (C. elegans; 60uM): 0 | paralyzed (number of animals) (C. elegans; 60uM): 13 and 11 and 6 and 14 and 15 and 12 | any phene: mean % fraction of young adults exhibiting any phenotype (coiled, jerky-Unc or paralyzed) (C. elegans; 60uM): 100% | EC50 (C. elegans): 8 ± 3.3 µM | % effect (motility), DIROIM MF ([2]; 0.016 µM): 0% | % effect (motility), DIROIM MF ([2]; 0.08 µM): 0% | % effect (motility), DIROIM MF ([2]; 0.4 µM): 0% | % effect (motility), DIROIM MF ([2]; 2 µM): 0% | % effect (motility), DIROIM MF ([2]; 10 µM): 0%

c1cc(N2CCN(CC3CCC3)CC2)ccn1 [Nemacol-60]
% effect (motility), DIROIM L4 ([1]; 10 µM): 0% | % effect (motility), DIROIM L4 ([1]; 50 µM): 10% | mean % any phene (Pristionchus pacificus; conc 3.75): 0% | rep 1 atypical locomotion (Pristionchus pacificus; conc 3.75): 0 | rep 1 coiled (Pristionchus pacificus; conc 3.75): 0 | rep 1 no phene (Pristionchus pacificus; conc 3.75): 20 | rep 1 paralyzed (Pristionchus pacificus; conc 3.75): 0 | rep 2 atypical locomotion (Pristionchus pacificus; conc 3.75): 0 | rep 2 coiled (Pristionchus pacificus; conc 3.75): 0 | rep 2 no phene (Pristionchus pacificus; conc 3.75): 20 | rep 2 paralyzed (Pristionchus pacificus; conc 3.75): 0 | rep 3 atypical locomotion (Pristionchus pacificus; conc 3.75): 0 | rep 3 coiled (Pristionchus pacificus; conc 3.75): 0 | rep 3 no phene (Pristionchus pacificus; conc 3.75): 20 | rep 3 paralyzed (Pristionchus pacificus; conc 3.75): 0 | mean % any phene (Pristionchus pacificus; conc 15): 0% | rep 1 atypical locomotion (Pristionchus pacificus; conc 15): 0 | rep 1 coiled (Pristionchus pacificus; conc 15): 0 | rep 1 no phene (Pristionchus pacificus; conc 15): 20 | rep 1 paralyzed (Pristionchus pacificus; conc 15): 0 | rep 2 atypical locomotion (Pristionchus pacificus; conc 15): 0 | rep 2 coiled (Pristionchus pacificus; conc 15): 0 | rep 2 no phene (Pristionchus pacificus; conc 15): 20 | rep 2 paralyzed (Pristionchus pacificus; conc 15): 0 | rep 3 atypical locomotion (Pristionchus pacificus; conc 15): 0 | rep 3 coiled (Pristionchus pacificus; conc 15): 0 | rep 3 no phene (Pristionchus pacificus; conc 15): 20 | rep 3 paralyzed (Pristionchus pacificus; conc 15): 0 | mean % any phene (Pristionchus pacificus; conc 60): 0% | rep 1 atypical locomotion (Pristionchus pacificus; conc 60): 0 | rep 1 coiled (Pristionchus pacificus; conc 60): 0 | rep 1 no phene (Pristionchus pacificus; conc 60): 20 | rep 1 paralyzed (Pristionchus pacificus; conc 60): 0 | rep 2 atypical locomotion (Pristionchus pacificus; conc 60): 0 | rep 2 coiled (Pristionchus pacificus; conc 60): 0 | rep 2 no phene (Pristionchus pacificus; conc 60): 20 | rep 2 paralyzed (Pristionchus pacificus; conc 60): 0 | rep 3 atypical locomotion (Pristionchus pacificus; conc 60): 0 | rep 3 coiled (Pristionchus pacificus; conc 60): 0 | rep 3 no phene (Pristionchus pacificus; conc 60): 20 | rep 3 paralyzed (Pristionchus pacificus; conc 60): 0 | atypical locomotion (number of animals) (C. elegans; 3.75uM): 0 and 2 and 3 | coiled (number of animals) (C. elegans; 3.75uM): 0 | no phene (number of animals) (C. elegans; 3.75uM): 20 and 18 and 17 | paralyzed (number of animals) (C. elegans; 3.75uM): 0 | any phene: mean % fraction of young adults exhibiting any phenotype (coiled, jerky-Unc or paralyzed) (C. elegans; 3.75uM): 4.167% | atypical locomotion (number of animals) (C. elegans; 15uM): 0 and 10 and 15 | coiled (number of animals) (C. elegans; 15uM): 0 | no phene (number of animals) (C. elegans; 15uM): 20 and 9 and 5 | paralyzed (number of animals) (C. elegans; 15uM): 0 and 1 | any phene: mean % fraction of young adults exhibiting any phenotype (coiled, jerky-Unc or paralyzed) (C. elegans; 15uM): 21.6667% | atypical locomotion (number of animals) (C. elegans; 60uM): 0 and 2 and 4 and 16 and 14 | coiled (number of animals) (C. elegans; 60uM): 0 | no phene (number of animals) (C. elegans; 60uM): 20 and 18 and 16 and 4 and 6 | paralyzed (number of animals) (C. elegans; 60uM): 0 | any phene: mean % fraction of young adults exhibiting any phenotype (coiled, jerky-Unc or paralyzed) (C. elegans; 60uM): 30% | EC50 (C. elegans): > 60 µM | % effect (motility), DIROIM MF ([2]; 0.016 µM): 0% | % effect (motility), DIROIM MF ([2]; 0.08 µM): 0% | % effect (motility), DIROIM MF ([2]; 0.4 µM): 0% | % effect (motility), DIROIM MF ([2]; 2 µM): 0% | % effect (motility), DIROIM MF ([2]; 10 µM): 0%
